The results in this text go back to publication PMC8252719, “Macrocyclic FKBP51 Ligands Define a Transient Binding Mode with Enhanced Selectivity” (Angewandte Chemie (International Ed. in English), 2021).

For one assay, the target named is FKBP12.6 (Homo sapiens, UniProt P68106). In words: competitive fluorescence polarization assay, FKBP12.6. The class given is binding. As to conditions: for Ki: competitive fluorescence polarization assay, >80 μM = highest measurable concentration before compound precipitation, ± = standard error from three independent measurements, read-out: FKBP12.6 K i. A general note: Polarisation of emitted light reports the rotation of a fluorescent probe.

Assay [1] addresses T1, FKBP51FK1 (Homo sapiens, UniProt Q13451).
T1 sequence (Q13451 42-130 limits assumed): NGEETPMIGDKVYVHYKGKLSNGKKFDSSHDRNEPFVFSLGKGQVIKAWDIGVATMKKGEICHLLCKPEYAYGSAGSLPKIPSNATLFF
Briefly: competitive fluorescence polarization assay, FKBP51FK1. The class given is binding. The following applies: ± = standard error from three independent measurements [b] or error from two independent measurements [d], read-out: FKBP51FK1 K i. Here is the method: Table S1. Ki values were determined by a competitive fluoresc ence polarization assay.
4.1 Binding curves of 13a, c and d […]

The next assay concerns the target FKBP12 (Homo sapiens, UniProt P62942). In words: competitive fluorescence polarization assay, FKBP12. It counts as binding. As to conditions: for Ki: competitive fluorescence polarization assay, >80 μM = highest measurable concentration before compound precipitation, ± = standard error from three independent measurements, read-out: FKBP12 K i.
Assay [2] has as its system IKKα phosphorylation in SIM-A9 cells. Briefly: IKKα inhibition in SIM-A9 cells (Western blot). It counts as cell-based, murine. As to conditions: for concentration at which apparent maximal inhibition of IKKα phosphorylation was already reached: SIM-A9 cells, lowest tested concentration; for inhibition of IKKα phosphorylation (in words) / dose-dependence of inhibition of IKKα phosphorylation: murine microglia SIM-A9 cells, 16 h treatment, Western blot; for inhibition of IKKα phosphorylation (in words): three (macrocycles) or six (SAFit) independent cellular assays. Here is the method:
We next explored if the macrocyclic ligands could interfere with the cellular functions of FKBP51. We therefore treated SIM‐A9 cells, which were recently discovered as a SAFit‐sensitive cellular model for stress‐mediated secretory autophagy. ^[24] […] (Figure 2 F and S6C). […]
5.2 IKKα inhibition in SIM-A9 cells
Cell culture and treatments
Murine microglia SIM-A9 cells were cultured at 37 °C, 5% CO2 in Dulbecco's Modified Eagle Medium (DMEM) high glucose with GlutaMAX (Thermo Fisher Scientific, 10566016), supplemented with 1 mM sodium pyruvate (Thermo Fisher Scientific, 11360-070), 10% fetal bovine serum (PAN Biotech, P30-8500), and 1% antibiotic-antimycotic (Thermo Fisher Scientific, 15240-062).
For the preparation of whole-cell lysates, confluent SIM-A9 cell cultures treated with the indicated compounds for 16 h in the above mentioned growth medium, were washed two times with ice-cold DPBS (Thermo Fisher Scientific, 14190-144) and lysed in an appropriate volume of RIPA buffer (Thermo Fisher Scientific, 89901), freshly supplemented with 1x cOmplete™ EDTA-free protease inhibitor cocktail (Roche, 4693132001) and 1x PhosSTOP™ phosphatase inhibitor cocktail (Roche, 4906837001) for 20 min on ice.
Subsequently, samples were centrifuged for 10 min at 4°C at 13000 rpm. The resulting supernatants were transferred to new 1.5 ml reaction tubes and prepared for separation with an SDS-PAGE system and analyzed by immunoblotting.
SDS-PAGE and immunoblotting
Separation of proteins was performed with the Criterion™ Vertical Electrophoresis Cell System (Bio-Rad, 1656001) on 4–20% Criterion™ TGX™ Precast Midi Protein Gels (Bio-Rad, 5671095). Immunoblotting was performed with the Trans-Blot Turbo Transfer System (Bio-Rad, 1704150) on 0.2 µm PVDF Trans-Blot Turbo Transfer Membranes (Bio-Rad, 1704157). For immunodetection, membranes were placed in TBS, supplemented with 0.05% Tween (Sigma-Aldrich, P9416) and 5% non-fat milk (Carl Roth, T145.1) for 1 h at RT and then incubated with the primary antibody diluted in TBS-T overnight at 4°C. Following primary antibodies were used:
Phospho-IKKα S176/phospho-IKKβ S177 (1:1000, Cell Signaling Technology, 2078), IKKα (1:1000, Cell Signaling Technology, 1682) and GAPDH (1:1000, Cell Signaling Techology, 5174).
Then, immunoblots were washed and probed with horseradish peroxidase- conjugated secondary antibody (1:10000, Cell Signaling Technology, 7074) for 1 h at RT. Immunoreactive protein bands were visualized using Clarity Western ECL Substrate (Bio-Rad, 1705061) or Clarity Max Western ECL Substrate (Bio-Rad, 1705062). Determination of the band intensities was performed with […]

In assay [3] the target is T1, FKBP51FK1. In words: isothermal titration calorimetry (ITC). It counts as binding. Here is the method: 1. ITC of compounds 13a and 13d
Figure S1. A) Binding of compound 13a to FKBP51FK1 determined by isothermal titration calorimetry at 25 °C. A 20 µM solution FKBP51FK1 formulated in 20 mM
HEPES pH 8.0, 20 mM NaCl, 5% glycerol and 2% DMSO was placed in the sample cell of a PEAK-ITC instrument. The syringe was filled with a 200 µM solution of
13a formulated in the same buffer. After equilibration the compound was titrated into the sample cell by 12 injection s of 3 µl each. The obtained data was analyzed
Binding of compound 13d to FKBP51FK1 determined by isothermal titration calorimetry at 25 °C. A 13 µM solution FKBP51FK1 formulated in 20 mM HEPES pH
8.0, 20 mM NaCl, 5% glycerol and 2% DMSO was placed in the sample cell of a PEAK -ITC instrument. The syringe was filled with a 10 0 µM solution of 13d
formulated in the same buffer. After equilibration the compound was titrated into the sample cell by 12 injections of 3 µl each. The obtained data was analyzed using […]
Background: Isothermal titration calorimetry measures the heat released or taken up as one component is titrated into another.

Where [4] appears, read: fluorescence polarization assay.

The structures appear in SMILES notation. Like-named read-outs stand apart in the source and are kept apart here.

FKBP12.6, sequence (P68106 whole entry): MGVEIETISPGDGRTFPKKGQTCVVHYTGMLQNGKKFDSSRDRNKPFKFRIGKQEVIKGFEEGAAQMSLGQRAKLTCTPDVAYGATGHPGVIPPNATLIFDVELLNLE
FKBP12, sequence (P62942 whole entry): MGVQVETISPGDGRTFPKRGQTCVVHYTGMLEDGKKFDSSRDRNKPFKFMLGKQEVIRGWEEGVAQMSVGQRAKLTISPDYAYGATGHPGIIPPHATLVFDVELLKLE

`COc1ccc(CCC2OC(=O)C3CCCCN3C(=O)C(C3CCCCC3)CC(O)C(O)COCCOc3cccc2c3)cc1OC` (mixture of isomers) [9 g]: the “binding to FKBP12.6 (in words)” value on FKBP12.6 (setting [4]) is reported as “did not bind”. In addition, the Ki at FKBP51FK1 [1] was 1.2 µM. Also, the “binding to FKBP12 (in words)” value on FKBP12 (setting [4]) was “did not bind”.
Regarding `COc1ccc(CC[C@H]2OC(=O)[C@@H]3CCCCN3C(=O)[C@@H](C3CCCCC3)NC(=O)C(C)(C)NC(=O)COc3cccc2c3)cc1OC` [13 c], the “concentration at which apparent maximal inhibition of IKKα phosphorylation was already reached” value in assay [2] was at most 1 µM. For the same molecule, the “inhibition of IKKα phosphorylation (in words)” value (shortened to “inhibition … (in words)”) in assay [2] is “inhibited”. The Ki at FKBP12.6 is above 80 µM; at FKBP51FK1 [1] (SEM), 0.29 ± 0.05 µM; at FKBP12 it was above 80 µM.
With `COc1ccc(CC[C@H]2OC(=O)[C@@H]3CCCCN3C(=O)[C@@H](C3CCCCC3)NC(=O)C3(CCCC3)NC(=O)COc3cccc2c3)cc1OC` [13 f], the Ki at FKBP12.6 is above 80 µM; on FKBP51FK1 [1] it was 1.3 µM; on FKBP12 it was above 80 µM.
For the molecule `COc1ccc(CC[C@H]2OC(=O)[C@@H]3CCCCN3C(=O)[C@@H](C3CCCCC3)NC(=O)[C@@H]3CCCN3C(=O)COc3cccc2c3)cc1OC` [13 k, (9S,12R,19S,22R)-12-cyclohexyl-22-[2-(3,4-dimethoxyphenyl)ethyl]-2,21-dioxa-5,11,14-triazatetracyclo[21.3.1.0⁵,⁹.0¹⁴,¹⁹]heptacosa-1(26),23(27),24-triene-4,10,13,20-tetrone], the Ki on FKBP12.6 and on FKBP12 was above 80 µM throughout.
Take `COc1ccc(CC[C@@H](OC(=O)[C@@H]2CCCCN2C(=O)[C@H](c2cc(OC)c(OC)c(OC)c2)C2CCCCC2)c2cccc(OCC(=O)O)c2)cc1OC` [SAFit1, reference compound]: the “dose-dependence of inhibition of IKKα phosphorylation” value in assay [2] is reported as “clear dose‐dependence”. Moreover, the “inhibition … (in words)” value in assay [2] is “inhibited”. Moreover, the Ki is 0.019 ± 0.002 µM at FKBP12.6 (SEM), 0.004 ± 0.001 µM on FKBP51FK1 [1] (SEM) and 0.163 ± 0.009 µM at FKBP12 (SEM).
With `COc1ccc(CC[C@@H](OC(=O)[C@@H]2CCCCN2C(=O)[C@H](c2cc(OC)c(OC)c(OC)c2)C2CCCCC2)c2cccc(OCCN3CCOCC3)c2)cc1OC` [SAFit2, reference compound], in assay [2], the “dose-dependence of inhibition of IKKα phosphorylation” value is listed as “clear dose‐dependence” and the “inhibition … (in words)” value is reported as “inhibited”.
Take `COc1ccc(CC[C@H]2OC(=O)[C@@H]3CCCCN3C(=O)[C@@H](C3CCCCC3)NC(=O)CN(C)C(=O)COc3cccc2c3)cc1OC` [13 g]: the figures for the Ki on FKBP12.6, on FKBP51FK1 [1] and at FKBP12 were above 80 µM, 3.1 µM and above 80 µM, respectively.
In the case of `COc1ccc(CC[C@H]2OC(=O)[C@@H]3CCCCN3C(=O)[C@@H](C3CCCCC3)NC(=O)[C@H]3CCCN3C(=O)COc3cccc2c3)cc1OC` [13 i, (9R,12R,19S,22R)-12-cyclohexyl-22-[2-(3,4-dimethoxyphenyl)ethyl]-2,21-dioxa-5,11,14-triazatetracyclo[21.3.1.0⁵,⁹.0¹⁴,¹⁹]heptacosa-1(26),23(27),24-triene-4,10,13,20-tetrone], the “dose-dependence of inhibition of IKKα phosphorylation” value in assay [2] is on record as “clear dose‐dependence”. In addition, the “inhibition … (in words)” value in assay [2] is listed as “inhibited”. The Ki at FKBP12.6 and on FKBP12 was above 80 µM each time.
As for `COc1ccc(CC[C@H]2OC(=O)[C@@H]3CCCCN3C(=O)[C@@H](C3CCCCC3)NC(=O)C3(CCC3)NC(=O)COc3cccc2c3)cc1OC` [13 e], the “dose-dependence of inhibition of IKKα phosphorylation” value in assay [2] is recorded as “clear dose‐dependence”. In addition, the “inhibition … (in words)” value in assay [2] was “inhibited”. Further, the results for the Ki at FKBP12.6, at FKBP51FK1 [1] and at FKBP12 were above 80 µM, 0.4 µM and above 80 µM, respectively.
`COc1ccc(CC[C@H]2OC(=O)[C@@H]3CCCCN3C(=O)[C@@H](C3CCCCC3)NC(=O)CCNC(=O)COc3cccc2c3)cc1OC` [13 l]: the Ki was above 80 µM on FKBP12.6, 7.4 µM on FKBP51FK1 [1] and above 80 µM on FKBP12.
`COc1ccc(CC[C@H]2OC(=O)[C@@H]3CCCCN3C(=O)[C@@H](C3CCCCC3)NC(=O)[C@H](C)NC(=O)COc3cccc2c3)cc1OC` [13 j, (2R,5S,12R,15S)-12-cyclohexyl-2-[2-(3,4-dimethoxyphenyl)ethyl]-15-methyl-3,19-dioxa-10,13,16-triazatricyclo[18.3.1.0⁵,¹⁰]tetracosa-1(24),20,22-triene-4,11,14,17-tetrone]: the Ki at FKBP12.6 and at FKBP12 was above 80 µM in each case.
In the case of `COc1ccc(CC[C@H]2OC(=O)[C@@H]3CCCCN3C(=O)[C@@H](C3CCCCC3)NC(=O)C(C)(C)N(C)C(=O)COc3cccc2c3)cc1OC` [13 h], in assay [2], the “concentration at which apparent maximal inhibition of IKKα phosphorylation was already reached” value was at most 1 µM. Further, the “inhibition … (in words)” value in assay [2] is recorded as “inhibited”. The Ki is above 80 µM at FKBP12.6, 0.37 µM at FKBP51FK1 [1] and above 80 µM at FKBP12.
Turning to `COc1ccc(CC[C@H]2OC(=O)[C@@H]3CCCCN3C(=O)[C@@H](C3CCCCC3)NC(=O)[C@@H](C)NC(=O)COc3cccc2c3)cc1OC` [13 b, (2R,5S,12R,15R)-12-cyclohexyl-2-[2-(3,4-dimethoxyphenyl)ethyl]-15-methyl-3,19-dioxa-10,13,16-triazatricyclo[18.3.1.0⁵,¹⁰]tetracosa-1(24),20,22-triene-4,11,14,17-tetrone], the Ki at FKBP12.6 and on FKBP12 was above 80 µM each time.
Take `COc1ccc(CC[C@H]2OC(=O)[C@@H]3CCCCN3C(=O)[C@@H](C3CCCCC3)NC(=O)CNC(=O)COc3cccc2c3)cc1OC` [13 a]: the values for the Ki on FKBP12.6, at FKBP51FK1 [1] (SEM) and on FKBP12 were above 80 µM, 2.3 ± 0.05 µM and above 80 µM, respectively. Further, the Kd at FKBP51FK1 [3] (25 °C, 20 mM HEPES pH 8.0, 20 mM NaCl, 5% glycerol, 2% DMSO, one-site binding model, mean ± SD from 3 independent experiments, SD, read-out: Kd-value for FKBP51FK1 by ITC) was 3.6 ± 0.9 µM; at FKBP51FK1 [3] (isothermal calorimetry, enthalpy-driven, read-out: K d for FKBP51 by ITC), 3.6 µM.
